One assay has as its target T1, RIPK1 kinase (Homo sapiens, UniProt Q13546).
T1 construct: purchased Promega VA7593
T1 sequence (Q13546 1-671): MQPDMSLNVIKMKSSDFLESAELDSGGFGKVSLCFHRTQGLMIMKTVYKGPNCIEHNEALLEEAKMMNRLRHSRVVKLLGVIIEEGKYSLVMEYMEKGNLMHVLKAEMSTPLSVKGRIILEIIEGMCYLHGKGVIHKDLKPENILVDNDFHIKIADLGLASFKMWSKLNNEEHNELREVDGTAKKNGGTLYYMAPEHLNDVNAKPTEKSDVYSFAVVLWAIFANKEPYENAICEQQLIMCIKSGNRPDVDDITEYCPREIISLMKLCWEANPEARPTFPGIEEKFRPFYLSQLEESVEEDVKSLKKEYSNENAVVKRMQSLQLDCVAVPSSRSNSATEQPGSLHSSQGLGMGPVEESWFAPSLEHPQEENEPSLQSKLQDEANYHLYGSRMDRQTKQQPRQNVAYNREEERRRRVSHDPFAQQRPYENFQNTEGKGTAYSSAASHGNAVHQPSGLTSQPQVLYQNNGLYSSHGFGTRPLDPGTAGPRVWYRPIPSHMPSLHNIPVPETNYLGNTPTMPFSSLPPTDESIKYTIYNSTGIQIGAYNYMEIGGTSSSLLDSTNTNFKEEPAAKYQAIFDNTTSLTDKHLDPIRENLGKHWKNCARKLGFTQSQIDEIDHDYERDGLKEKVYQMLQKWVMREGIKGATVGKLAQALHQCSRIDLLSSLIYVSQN
Nature of the assay: In vitro RIPK1 kinase activity assay (ADP-Glo), inhibition by compounds at 1 μM. The assay is classed as biochemical. To be noted: compound 1 μM; ATP 10 μM; MBP substrate 100 μg/mL; read-out: RIPK1 kinase activity inhibition rate range. How it is done: RIPK1 kinase activity was assayed using the ADP-Glo assay and RIPK1 kinase reaction system (Promega, catalog number: VA7593). The RIPK1 kinase activity assay was performed according to the Promega kit manual.
The experimental method was briefly described as below. The concentration of RIPK1 kinase in the RIPK1 kinase reaction system was determined by kinase titration and S/B10. Compounds were diluted with 1× kinase buffer D (1% DMSO), and 1 μL of 100 μM compound DMSO stock solution was added to 19 μL 1× kinase buffer D. RIPK1 kinase was diluted with 1× kinase buffer D. 2.5×ATP/substrate was diluted with 1× kinase buffer D. The final concentration of ATP in the kinase reaction system was 10 μM, and the final concentration of MBP substrate was 100 μg/mL. 1 μL of diluted compound and 2 μL of diluted RIPK1 kinase were mixed, incubated at room temperature for 15 minutes, 2 μL of 2.5×ATP/substrate was added, mixed, and incubated at room temperature for 1 hour. 5 μL of ADP-Glo reagent was added to each well and incubated at room temperature for 1 hour. 10 μL of ADP detection reagent was added to each well and incubated at room temperature for another 0.5-1 hour. The chemiluminescent signal was read by a microplate reader and the inhibition rate of kinase activity was calculated.

Assay [1] concerns U937 cells. Nature of the assay: EC50 of necroptosis inhibition in U937 cells (TSZ-induced, CellTiter-Glo). In kind it is cell-based. To be noted: Homo sapiens, U-937; TSZ (hTNF-α, SM-164, Z-VAD-FMK) 20 hours; 10 concentration points; read-out: EC50 intervals of necroptosis inhibition in U937 cells. The procedure:
(§1) The biological activity of RIPK1 inhibitors was further evaluated in the inhibition of necroptosis in U937 cells. U937 cell line was purchased from Huatuo Biotechnology and stored in liquid nitrogen. U937 cells were revived before the experiment and cultured in RPMI-1640 medium (supplemented with 10% fetal bovine serum, 100 U/mL penicillin and 100 μg/mL streptomycin) at 37° C., 5% CO2. The activity was further evaluated by the cellular ATP level detected by the Promega CellTiter-Glo 2.0 Assay cell viability assay kit (Catalog No.: G9242).
The experimental method was briefly described as below. U937 cells in the logarithmic growth phase were collected by centrifugation. Cells were diluted to the cell density of 5×10^5 cells/mL with RPMI 1640 medium (supplemented with 10% fetal bovine serum, 100 U/mL penicillin and 100 μg/mL streptomycin). Cell suspension was added to a white sterile 384-well cell culture plate at 15 μL/well. The test compound was dissolved in DMSO to prepare a 10 mM stock solution. The compound was serially diluted with culture medium at a ratio of 1:3, for a total of 10 concentration points. A control with the same DMSO volume was set, with two replicates for each concentration. The diluted compound was added to the 384-well cell culture plate containing cells at 2.5 μL/well and incubated at 37° C., 5% CO2 for 15 minutes. Z-VAD-FMK (Biyuntian, catalog number: C1202-5 mg) was dissolved in DMSO to prepare a 20 mM stock solution. SM-164 (Biyuntian, catalog number: SC0114-10 mM) was dissolved in DMSO to prepare a 10 mM stock solution and diluted to 0.1 mM. hTNF-α (Sino Biological Inc., catalog number: 10602-HNAE) was dissolved in sterile water to 10 μg/mL. RPMI 1640 medium (supplemented with 10% fetal bovine serum, 100 U/mL penicillin and 100 μg/mL streptomycin) was used to prepare the TSZ mixture, containing 133.3 μM Z-VAD-FMK, 33.3 ng/ml hTNF-α and 0.3 μM SM-164. After 15 minutes' coculture of compounds and cells, 7.5 μL of TSZ mixture was added to each well, mixed evenly, and cultured at 37° C., 5% CO2 for 20 hours. After 20 hours, the culture plate was removed and placed at room temperature for 30 minutes. Then, 10 μL of CellTiter-Glo reagent pre-equilibrated at room temperature was added to each well and incubated. After 10 minutes' incubation at room temperature in the dark, the chemiluminescence were measured using a microplate reader. The inhibition rate was calculated as Inh %=(1−(no TSZ-TSZ & compound)/(no TSZ-TSZ))×100. The EC50 was obtained by fitting the nonlinear regression curve log [inhibitor] vs. response−variable slope (four parameters) in GraphPad Prism.
On the technique in general: Cellular ATP, detected with luciferase, serves as a proxy for viable cell number.

Assay [2] concerns U937 cells. Nature of the assay: Inhibition rate of compound (1 μM) on necroptosis of U937 cells (TSZ-induced, CellTiter-Glo). In kind it is cell-based. To be noted: TSZ (hTNF-α, SM-164, Z-VAD-FMK) 20 hours. How it is done: as §1
The experimental method was briefly described as below. U937 cells in the logarithmic growth phase were collected by centrifugation. Cells were diluted at the density of 5×10^5 cells/mL with RPMI 1640 medium (supplemented with 10% fetal bovine serum, 100 U/mL penicillin and 100 μg/mL streptomycin). The cell suspension was added to a white sterile 384-well cell culture plate at 15 μL/well. The test compound was dissolved in DMSO to prepare a 10 mM stock solution and diluted to 10 μM with culture medium. At the same time, a control with the same DMSO volume was set up. Two replicates were added for each concentration. The diluted compound was added to the 384-well cell culture plate containing cells at 2.5 µL/well and incubated at 37° C., 5% CO2 for 15 minutes. Z-VAD-FMK (Biyuntian, catalog number: C1202-5 mg) was dissolved in DMSO to prepare a 20 mM stock solution. SM-164 (Biyuntian, catalog number: SC0114-10 mM) was dissolved in DMSO to prepare a 10 mM stock solution and diluted to 0.1 mM. hTNF-α (Sino Biological Inc., catalog number: 10602-HNAE) was dissolved in sterile water to 10 μg/mL. RPMI 1640 medium (supplemented with 10% fetal bovine serum, 100 U/mL penicillin and 100 μg/mL streptomycin) was used to prepare the TSZ mixture, containing 133.3 μM Z-VAD-FMK, 33.3 ng/ml hTNF-α and 0.3 μM SM-164. After 15 minutes' coculture of compounds and cells, 7.5 μL of TSZ mixture was added to each well, mixed evenly, and cultured at 37° C., 5% CO2 for 20 hours. After 20 hours, the culture plate was removed and placed at room temperature for 30 minutes. 10 μL of CellTiter-Glo reagent pre-equilibrated at room temperature was added to each well and incubated for 10 minutes from light. The chemiluminescence was read by a microplate reader. The inhibition rate was calculated as Inh %=(1−(no TSZ-TSZ & compound)/(no TSZ-TSZ))×100.

A value given as a limit tells only on which side of the number the result lay.

As usually defined, the inhibition is the drop in the measured response relative to a control, in per cent. As a reminder, the EC50 is the concentration giving half of the maximal effect. In the case of `C#CCOc1ccc2c(c1)N(C)C(=O)[C@@H](NC(=O)C(=O)NCCc1ccccc1)CO2` [Example 10, (S)—N^1-(5-methyl-4-oxo-7-(prop-2-yn-1-yloxy)-2,3,4,5-tetrahydrobenzo[b][1,4]oxazepin-3-yl)-N^2-phenethyloxalamide], at RIPK1 kinase, the inhibition at 1 µM was ≥ 75%. Also, the EC50 in the assay with U937 cells [1] lay in the range of 100 to 500 nM. For the same compound, the “Inhibition rate range of compounds (1 μM) on U937 cell necroptosis” value (“Inhibition rate range of compounds” below) in the assay on U937 cells [2] is reported as “A (A: ≥90%)”.

Consider `Cc1cccc(/C=C/c2ccc3c(c2)N(C)C(=O)[C@@H](NC(=O)C(=O)NCCc2ccccc2)CO3)c1` [Example 11, (S,E)-N^1-(5-methyl-7-(3-methylstyryl)-4-oxo-2,3,4,5-tetrahydrobenzo[b][1,4]oxazepin-3-yl)-N^2-phenethyloxalamide], for which, at RIPK1 kinase, the inhibition at 1 µM is ≥ 75%. For the same compound, in the assay with U937 cells [1], the EC50 is < 100 nM. The “Inhibition rate range of compounds” value with U937 cells [2] is recorded as “A (A: ≥90%)”.

With `CN1C(=O)[C@@H](NC(=O)C(=O)NCCc2ccccc2)COc2ccc(C#Cc3ccncc3)cc21` [Example 12, (S)-N^1-(5-methyl-4-oxo-7-(pyridin-4-ylethynyl)-2,3,4,5-tetrahydrobenzo[b][1,4]oxazepin-3-yl)-N^2-phenethyloxalamide], the inhibition at 1 µM on RIPK1 kinase was ≥ 75%. Also, the EC50 with U937 cells [1] was < 100 nM. In addition, the “Inhibition rate range of compounds” value in the assay on U937 cells [2] is on record as “A (A: ≥90%)”.

`CN1C(=O)[C@@H](NC(=O)C(=O)NCCc2ccccc2)COc2ccc(C#Cc3ccccn3)cc21` [Example 14, (S)—N^1-(5-methyl-4-oxo-7-(pyridin-2-ylethynyl)-2,3,4,5-tetrahydrobenzo[b][1,4]oxazepin-3-yl)-N^2-phenethyloxalamide]: the inhibition at 1 µM at RIPK1 kinase was ≥ 75%. Besides, the EC50 in the assay with U937 cells [1] is < 100 nM. Further, the “Inhibition rate range of compounds” value in the assay on U937 cells [2] was “A (A: ≥90%)”.

For the compound `CN1C(=O)[C@@H](NC(=O)C(=O)NCCc2ccccc2)COc2ccc(C#Cc3cncnc3)cc21` [Example 15, (S)—N^1-(5-methyl-4-oxo-7-(pyrimidin-5-ylethynyl)-2,3,4,5-tetrahydrobenzo[b][1,4]oxazepin-3-yl)-N^2-phenethyloxalamide], the inhibition at 1 µM on RIPK1 kinase is ≥ 75%. Besides, the EC50 in the assay with U937 cells [1] was < 100 nM. Also, the “Inhibition rate range of compounds” value in the assay on U937 cells [2] is reported as “A (A: ≥90%)”.

On to `CN1C(=O)[C@@H](NC(=O)C(=O)NCCc2ccccc2)COc2ccc(C#Cc3cccs3)cc21` [Example 16, (S)—N^1-(5-methyl-4-oxo-7-(thiophen-2-ylethynyl)-2,3,4,5-tetrahydrobenzo[b][1,4]oxazepin-3-yl)-N^2-phenethyloxalamide], for which the inhibition at 1 µM at RIPK1 kinase is 50 to 74%. Also, the EC50 in the assay on U937 cells [1] was < 100 nM. The “Inhibition rate range of compounds” value in the assay on U937 cells [2] is “A (A: ≥90%)”.

For the compound `C#Cc1ccc2c(c1)N(C)C(=O)[C@@H](NC(=O)C(=O)NCCc1ccccc1)CO2` [Example 20, (S)—N^1-(7-ethynyl-5-methyl-4-oxo-2,3,4,5-tetrahydrobenzo[b][1,4]oxazepin-3-yl)-N^2-phenethyloxalamide], the inhibition at 1 µM at RIPK1 kinase fell in the range of 50 to 74%. The EC50 in the assay with U937 cells [1] is < 100 nM. For the same compound, in the assay with U937 cells [2], the “Inhibition rate range of compounds” value is reported as “A (A: ≥90%)”.

Regarding `CN1C(=O)[C@@H](NC(=O)C(=O)NCCc2ccccc2)COc2ccc(C#CC3CCNCC3)cc21` [Example 23, (S)—N^1-(5-methyl-4-oxo-7-(piperidin-4-ylethynyl)-2,3,4,5-tetrahydrobenzo[b][1,4]oxazepin-3-yl)-N^2-phenethyloxalamide], the inhibition at 1 µM on RIPK1 kinase fell in the range of 50 to 74%. For the same compound, the EC50 in the assay on U937 cells [1] was < 100 nM. In the assay on U937 cells [2], the “Inhibition rate range of compounds” value is given as “A (A: ≥90%)”.

For the compound `CN1C(=O)[C@@H](NC(=O)C(=O)NCCc2ccccc2)COc2ccc(C#CC3=CCCCC3)cc21` [Example 26, (S)—N^1-(7-(cyclohex-1-en-1-ylethynyl)-5-methyl-4-oxo-2,3,4,5-tetrahydrobenzo[b][1,4]oxazepin-3-yl)-N^2-phenethyloxalamide], at RIPK1 kinase, the inhibition at 1 µM is ≥ 75%. In addition, the EC50 in the assay with U937 cells [1] was < 100 nM. Also, the “Inhibition rate range of compounds” value in the assay with U937 cells [2] is “A (A: ≥90%)”.

Turning to `CN1C(=O)[C@@H](NC(=O)C(=O)NCCc2ccccc2)COc2ccc(C#Cc3cc(F)cc(F)c3)cc21` [Example 27, (S)—N^1-(7-((3,5-difluorophenyl)ethynyl)-5-methyl-4-oxo-2,3,4,5-tetrahydrobenzo[b][1,4]oxazepin-3-yl)-N^2-phenethyloxalamide], at RIPK1 kinase, the inhibition at 1 µM was in the range of 50 to 74%. Also, in the assay on U937 cells [1], the EC50 was < 100 nM. Further, the “Inhibition rate range of compounds” value with U937 cells [2] is reported as “A (A: ≥90%)”.
